Laboratory results published in patent US7445765B2, “Radiopharmaceutical for diagnostic imaging containing a technetium-99m nitride heterocomplex” (Nihon Medi-Physics Co., Ltd., priority 2000, dated 2008).

Assays:
[1] = Stability: ligand exchange reaction with cysteine or glutathione; assay type: physicochemical; conditions: phosphate buffer pH 7.4, 37° C., up to 2 hours, TLC
Protocol: The stability of the ^99mTc(N) heterocomplexes obtained using PNP3 as a bisphosphinoamine compound in Example 1 was confirmed by ligand exchange reaction with cysteine or glutathione.
250.0 μL of phosphate buffer solution (0.20 M, pH=7.4), 100 μL of water and 100 μL of each of the ^99mTc(N) heterocomplexes purified were mixed with 50 μL of each of cysteine solutions having different concentrations of 10 mM and 1.0 mM, and the resulting mixture was placed in a polypropylene test tube and incubated in a thermostat at 37° C. A blank solution was obtained by mixing an equal volume of water without addition of cysteine. Aliquots of the resulting solutions were withdrawn at 15 min, 30 min, 60 min and 2 hours after the start of the incubation, and analyzed by TLC. The same experiment as above was carried out except for using glutathione in place of cysteine. All the ^99mTc(N) heterocomplex samples were found stable against transchelation by cystein or glutathione.

[2] = Measurement of Log k′ (partition ratio) by HPLC, PNP3 heterocomplexes; assay type: physicochemical; conditions: HPLC C18, methanol/phosphate buffer (0.02M, pH 7.4), 1.0 mL/min; extrapolated to 0% organic solvent
Protocol: For the various ^99mTc(N) heterocomplexes synthesized using PNP3 as a bisphosphinoamine compound in Example 1, Log k′ values were determined at various compositions of a mobile phase for HPLC. As the mobile phase, mixtures of methanol and phosphate buffer (0.02M, pH=7.4) were used at a flow rate of 1.0 mL/min. For each sample, the retention time was measured at a minimum of three different methanol concentrations in the mobile phase. The Log k′ values at 0% organic solvent (Log k′0) were extrapolated from the linear part of the curve Log k′=a+bC, where C is the methanol concentration, and Log k′ is Log (tR-to)/to wherein tR is HPLC retension time (min). The column void time (t0) was regarded as being equal to the elution time of pertechnetic acid.

[3] = Biodistribution of the 99mTc(N) heterocomplexes in rats (organ uptake, heart accumulation, heart/lung and heart/liver ratios); assay type: in vivo, female Sprague-Dawley rats
Summary of the method: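 Female Sprague-Dawley rats (200–250 g, n=3), ketamine/xylazine anaesthesia, got 300–370 kBq of each purified heterocomplex in pH 7.4 phosphate buffer (10% ethanol) via the jugular vein. They were killed at several post-injection times. Heart blood and washed, weighed organs were gamma-counted, taking whole blood as 6.5% of body weight.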

CCOCCN(CCOCC)C1=[S][99Tc+]2(#[N])([S]1)[P](CCCOC)(CCCOC)CCN(CCOC)CC[P]2(CCCOC)CCCOC [[^99mTc(N) (PNP3) (DBODC)]^+]
Stability [1]: Stable | Log k′ (partition ratio) [2]: 3.82 | Biodistribution in rats: Adrenal glands ([3]; 0 min post injection): 2.68 ± 0.44 % ID/g | Biodistribution in rats: Blood ([3]; 0 min post injection): 0.55 ± 0.32 % ID/g | Biodistribution in rats: Brain ([3]; 0 min post injection): 0.23 ± 0.04 % ID/g | Biodistribution in rats: Heart ([3]; 0 min post injection): 3.57 ± 0.14 % ID/g | Biodistribution in rats: Intestine ([3]; 0 min post injection): 2.43 ± 0.49 % ID/g | Biodistribution in rats: Kidneys ([3]; 0 min post injection): 10.40 ± 2.16 % ID/g | Biodistribution in rats: Liver ([3]; 0 min post injection): 1.46 ± 0.05 % ID/g | Biodistribution in rats: Lungs ([3]; 0 min post injection): 1.54 ± 0.03 % ID/g | Biodistribution in rats: Muscle ([3]; 0 min post injection): 0.23 ± 0.04 % ID/g | Biodistribution in rats: Spleen ([3]; 0 min post injection): 1.84 ± 0.49 % ID/g | Biodistribution in rats: Submaxillary glands ([3]; 0 min post injection): 1.25 ± 0.47 % ID/g | Biodistribution in rats: Adrenal glands ([3]; 2 min post injection): 2.87 ± 1.00 % ID/g | Biodistribution in rats: Blood ([3]; 2 min post injection): 0.11 ± 0.01 % ID/g | Biodistribution in rats: Brain ([3]; 2 min post injection): 0.03 ± 0.00 % ID/g | Biodistribution in rats: Heart ([3]; 2 min post injection): 3.42 ± 0.19 % ID/g | Biodistribution in rats: Intestine ([3]; 2 min post injection): 7.42 ± 1.03 % ID/g | Biodistribution in rats: Kidneys ([3]; 2 min post injection): 11.57 ± 2.37 % ID/g | Biodistribution in rats: Liver ([3]; 2 min post injection): 1.72 ± 0.26 % ID/g | Biodistribution in rats: Lungs ([3]; 2 min post injection): 1.01 ± 0.49 % ID/g | Biodistribution in rats: Muscle ([3]; 2 min post injection): 0.23 ± 0.01 % ID/g | Biodistribution in rats: Spleen ([3]; 2 min post injection): 2.00 ± 0.07 % ID/g | Biodistribution in rats: Submaxillary glands ([3]; 2 min post injection): 1.27 ± 0.05 % ID/g | Biodistribution in rats: Adrenal glands ([3]; 10 min post injection): 2.30 ± 0.73 % ID/g | Biodistribution in rats: Blood ([3]; 10 min post injection): 0.03 ± 0.00 % ID/g | Biodistribution in rats: Brain ([3]; 10 min post injection): 0.02 ± 0.00 % ID/g | Biodistribution in rats: Heart ([3]; 10 min post injection): 3.65 ± 0.56 % ID/g | Biodistribution in rats: Intestine ([3]; 10 min post injection): 12.11 ± 2.92 % ID/g | Biodistribution in rats: Kidneys ([3]; 10 min post injection): 6.74 ± 0.63 % ID/g | Biodistribution in rats: Liver ([3]; 10 min post injection): 1.43 ± 0.47 % ID/g | Biodistribution in rats: Lungs ([3]; 10 min post injection): 0.77 ± 0.10 % ID/g | Biodistribution in rats: Muscle ([3]; 10 min post injection): 0.23 ± 0.07 % ID/g | Biodistribution in rats: Spleen ([3]; 10 min post injection): 1.28 ± 0.12 % ID/g | Biodistribution in rats: Submaxillary glands ([3]; 10 min post injection): 1.42 ± 0.24 % ID/g | Biodistribution in rats: Adrenal glands ([3]; 20 min post injection): 2.69 ± 0.37 % ID/g | Biodistribution in rats: Blood ([3]; 20 min post injection): 0.02 ± 0.01 % ID/g | Biodistribution in rats: Brain ([3]; 20 min post injection): 0.02 ± 0.01 % ID/g | Biodistribution in rats: Heart ([3]; 20 min post injection): 3.32 ± 0.18 % ID/g | Biodistribution in rats: Intestine ([3]; 20 min post injection): 13.03 ± 3.19 % ID/g | Biodistribution in rats: Kidneys ([3]; 20 min post injection): 6.12 ± 0.11 % ID/g | Biodistribution in rats: Liver ([3]; 20 min post injection): 0.87 ± 0.52 % ID/g | Biodistribution in rats: Lungs ([3]; 20 min post injection): 0.84 ± 0.06 % ID/g | Biodistribution in rats: Muscle ([3]; 20 min post injection): 0.13 ± 0.02 % ID/g | Biodistribution in rats: Spleen ([3]; 20 min post injection): 0.92 ± 0.10 % ID/g | Biodistribution in rats: Submaxillary glands ([3]; 20 min post injection): 1.32 ± 0.21 % ID/g | Biodistribution in rats: Adrenal glands ([3]; 30 min post injection): 2.94 ± 0.18 % ID/g | Biodistribution in rats: Blood ([3]; 30 min post injection): 0.02 ± 0.00 % ID/g | Biodistribution in rats: Brain ([3]; 30 min post injection): 0.02 ± 0.02 % ID/g | Biodistribution in rats: Heart ([3]; 30 min post injection): 3.27 ± 0.36 % ID/g | Biodistribution in rats: Intestine ([3]; 30 min post injection): 13.41 ± 4.62 % ID/g | Biodistribution in rats: Kidneys ([3]; 30 min post injection): 5.67 ± 0.39 % ID/g | Biodistribution in rats: Liver ([3]; 30 min post injection): 0.42 ± 0.01 % ID/g | Biodistribution in rats: Lungs ([3]; 30 min post injection): 0.69 ± 0.12 % ID/g | Biodistribution in rats: Muscle ([3]; 30 min post injection): 0.24 ± 0.08 % ID/g | Biodistribution in rats: Spleen ([3]; 30 min post injection): 0.95 ± 0.02 % ID/g | Biodistribution in rats: Submaxillary glands ([3]; 30 min post injection): 1.49 ± 0.22 % ID/g | Biodistribution in rats: Adrenal glands ([3]; 60 min post injection): 2.17 ± 0.35 % ID/g | Biodistribution in rats: Blood ([3]; 60 min post injection): 0.01 ± 0.00 % ID/g | Biodistribution in rats: Brain ([3]; 60 min post injection): 0.01 ± 0.00 % ID/g | Biodistribution in rats: Heart ([3]; 60 min post injection): 3.27 ± 0.62 % ID/g | Biodistribution in rats: Intestine ([3]; 60 min post injection): 4.39 ± 2.86 % ID/g | Biodistribution in rats: Kidneys ([3]; 60 min post injection): 4.24 ± 0.53 % ID/g | Biodistribution in rats: Liver ([3]; 60 min post injection): 0.16 ± 0.05 % ID/g | Biodistribution in rats: Lungs ([3]; 60 min post injection): 0.34 ± 0.11 % ID/g | Biodistribution in rats: Muscle ([3]; 60 min post injection): 0.17 ± 0.01 % ID/g | Biodistribution in rats: Spleen ([3]; 60 min post injection): 0.42 ± 0.11 % ID/g | Biodistribution in rats: Submaxillary glands ([3]; 60 min post injection): 1.29 ± 0.28 % ID/g | Biodistribution in rats: Adrenal glands ([3]; 120 min post injection): 2.53 ± 0.27 % ID/g | Biodistribution in rats: Blood ([3]; 120 min post injection): 0.01 ± 0.00 % ID/g | Biodistribution in rats: Brain ([3]; 120 min post injection): 0.01 ± 0.00 % ID/g | Biodistribution in rats: Heart ([3]; 120 min post injection): 3.00 ± 0.42 % ID/g | Biodistribution in rats: Intestine ([3]; 120 min post injection): 7.03 ± 2.61 % ID/g | Biodistribution in rats: Kidneys ([3]; 120 min post injection): 3.48 ± 0.61 % ID/g | Biodistribution in rats: Liver ([3]; 120 min post injection): 0.12 ± 0.03 % ID/g | Biodistribution in rats: Lungs ([3]; 120 min post injection): 0.27 ± 0.05 % ID/g | Biodistribution in rats: Muscle ([3]; 120 min post injection): 0.36 ± 0.15 % ID/g | Biodistribution in rats: Spleen ([3]; 120 min post injection): 0.21 ± 0.03 % ID/g | Biodistribution in rats: Submaxillary glands ([3]; 120 min post injection): 1.59 ± 0.19 % ID/g
